Measurements as given in US20190046513A1, “COMBINATION THERAPIES OF HDAC INHIBITORS AND TUBULIN INHIBITORS” (HUYA Bioscience International, LLC, priority 2017, published 2019).
Counter-ions that a name gives are not always drawn.

Legend:
Format in all cases: in vivo, BALB/c mice
[1] = tested on: 4T1 murine mammary carcinoma cells; test: Lung metastasis count, 4T1 tumor-bearing mice (Example 1, Study Group B); conditions: Example 1, monotherapies; Day 14
Description: (§1) In the present example, HBI-8000 was tested as monotherapy at 50 mg/kg, and in combination with eribulin mesylate at 0.3 mg/kg and 1.0 mg/kg. The experiment included a vehicle-treated group, and eribulin at 0.3 mg/kg and 1.0 mg/kg, which served as the control groups for analysis of efficacy.
In the second group (Study Group B, tumor-bearing mice were monitored for the development of lung metastases until the number of metastatic nodules reached 30-50 per animal. All animals were euthanized on Day 14, the lungs removed and processed for analysis of metastatic burden.
where w=width and 1=length, in mm, of the tumor. Tumor weight may be estimated with the assumption that 1 mg is equivalent to 1 mm^3 of tumor volume. […]
Lung Metastasis: Animals were sacrificed at endpoint using isoflurane anesthesia and necropsies were performed to identify metastases. […] Percent inhibition was defined as the difference between the number of metastatic foci of the designated control group and the number of metastatic foci of the drug-treated group, expressed as a percentage of the number of metastatic foci of the designated control group: […]
Statistics: Prism (GraphPad) for Windows 6.07 was used for graphical presentations and statistical analyses. […] Logrank analysis includes the data for all animals in a group except those assessed as NTR deaths. […]

[2] = tested on: 4T1 murine mammary carcinoma cells; test: Lung metastasis count, 4T1 tumor-bearing mice (Example 2); conditions: HBI-8000 50 mg/kg p.o. qd×16, eribulin 1 mg/kg i.v., Day 18, FIG. 3
Description: (§2) In the present example, HBI-8000 was tested as monotherapy at 50 mg/kg, and in combination with eribulin mesylate at 1.0 mg/kg. The experiment included a vehicle-treated group, and eribulin at 1.0 mg/kg, which served as the control groups for analysis of efficacy.
Two study groups were used; in the first group, a sentinel group (termed LOOK-SEE) tumor-bearing mice were monitored for the development of lung metastases until the number of metastatic nodules reached 30-50 per animal. After meeting that criteria, all animals in Group B, the main study group, were euthanized on Day 18, the lungs removed and processed for analysis of metastatic burden.
(§3) Tumor Implantation: Cells were harvested during exponential growth, and resuspended in cold DMEM. Each mouse was inoculated subcutaneously in the right flank with 0.5×10^6 4T1 cells (0.1 mL of cell suspension). Tumors were calipered in two dimensions to monitor growth as their mean volume approached the desired 100-150 mm^3 range. Tumor burden was calculated using the formula:
where w=width and 1=length, in mm, of the tumor. Tumor weight may be estimated with the assumption that 1 mg is equivalent to 1 mm3 of tumor volume. […]

[3] = tested on: 4T1 murine mammary carcinoma cells; test: Tumor growth delay, subcutaneous 4T1 tumors (Example 1, Study Group A); conditions: for Median TTE: endpoint tumor volume 1000 mm^3, n=10; for % TGD: vs vehicle group
Description: as §1
Two study groups were used; in the first group (Study Group A) tumor growth inhibition and survival were measured. Tumors were measured twice per week until the study was ended on Day 21. Each animal was euthanized when its tumor attained the endpoint tumor volume of 1000 mm^3 or on the final day of the study, whichever came first, and the time to endpoint (TTE) for each mouse was calculated. Treatment response was determined from an analysis of percent tumor growth delay (% TGD), defined as the percent increase in the median time to endpoint (TTE) for treated versus control mice; and by log-rank significance of differences in survival among groups and regression responses.
Mice: Female BALB/c mice (Charles River Laboratories) were seven weeks old, with a body weight (BW) range of 15.6 to 20.2 grams on Day 1 of the study. The animals were fed ad libitum water (reverse osmosis, 1 ppm Cl), and NIH 31 Modified and Irradiated Lab Diet® consisting of 18.0% crude protein, 5.0% crude fat, and 5.0% crude fiber. The mice were housed on irradiated Enrich-O'Cobs™ Laboratory Animal Bedding in static microisolators on a 12-hour light cycle at 20-22° C. (68-72° F.) and 40-60% humidity.
Tumor Cells: 4T1 murine mammary carcinoma cells were maintained in Dulbecco's Modified Eagle Medium (DMEM) supplemented with 10% fetal bovine serum and 2 mM glutamine, 100 units/mL penicillin G sodium, 100 μg/mL streptomycin sulfate, and 25 μg/mL gentamicin. Cell cultures were maintained in tissue culture flasks in a humidified incubator at 37° C., in an atmosphere of 5% CO2 and 95% air.
Tumor Implantation: Cells were harvested during exponential growth, and resuspended in cold DMEM. Each mouse was inoculated subcutaneously in the right flank with 1×10^6 4T1 cells (0.1 mL of cell suspension). Tumors were calipered in two dimensions to monitor growth as their mean volume approached the desired 100-150 mm^3 range. Tumor burden was calculated using the formula:
where w=width and 1=length, in mm, of the tumor. Tumor weight may be estimated with the assumption that 1 mg is equivalent to 1 mm^3 of tumor volume. Nine days after tumor implantation, which was designated as Day 1 of the study, animals with individual tumor volumes from 108 to 126 mm^3 were sorted into treatment groups. For Study Group A the animals were sorted into 6 treatment groups (Table 1; n=10/group) with group mean tumor volume of 117 mm^3. For Study Group B the animals were also sorted into 6 treatment groups (Table 1; n=5/group) with group mean tumor volume of 117 mm^3.
Tumor Growth Delay: Tumors were measured using calipers twice per week, and each animal was euthanized when its tumor reached a volume of 1000 mm^3 or at the end of the study (D47), whichever came first. Animals that exited the study for tumor volume endpoint were documented as euthanized for tumor progression (TP), with the date of euthanasia. The time to endpoint (TTE) for analysis was calculated for each mouse by the following equation: […]
where TTE is expressed in days, endpoint volume is expressed in mm^3, b is the intercept, and m is the slope of the line obtained by linear regression of a log-transformed tumor growth data set. The data set consisted of the first observation that exceeded the endpoint volume used in analysis and the three consecutive observations that immediately preceded the attainment of this endpoint volume. The calculated TTE is usually less than the TP date, the day on which the animal was euthanized for tumor burden. […]

[4] = tested on: 4T1 murine mammary carcinoma cells; test: Primary tumor volume distribution, 4T1 tumor-bearing mice (Example 2); conditions: HBI-8000 50 mg/kg p.o. qd×16, eribulin 1 mg/kg i.v., FIG. 4
Description: as §2, §3
where w=width and 1=length, in mm, of the tumor. Tumor weight may be estimated with the assumption that 1 mg is equivalent to 1 mm3 of tumor volume. Fourteen days after tumor implantation, which was designated as Day 1 of the study, animals with individual tumor volumes from animals with individual tumor volumes ranging from 75 to 108 mm3 were sorted into the “LOOK-SEE” group (n=15) and eight efficacy groups (n=10) with group mean tumor volumes of 95 mm3.
Treatment: On Day 1 of the study, mice bearing established 4T1 tumors began dosing according to the treatment plan described below. All agents were administered in dosing volumes of 10 mL/kg; volumes were adjusted according to BW of the individual animal. […]

[5] = HBI-8000 50 mg/kg p.o., qd × 21
[6] = Eribulin mesylate 0.3 mg/kg i.v., qowk × 2
[7] = Eribulin mesylate 1.0 mg/kg i.v., qowk × 2

SMILES	number of lung metastatic foci [1]	metastatic lung foci [2]	tumor volume distribution ([3]; Example 1, HBI-8000 monotherapy 50 mg/kg, P<0.01)	Median TTE [3, 5]	% TGD [3, 5]	primary tumor volume distribution [4]	Median TTE [3, 6]	% TGD [3, 6]	Median TTE [3, 7]	% TGD [3, 7]
Nc1cc(F)ccc1NC(=O)c1ccc(CNC(=O)/C=C/c2cccnc2)cc1 [HBI-8000, N-(2-amino-4-fluorophenyl)-4-[[[(2E)-1-oxo-3-(3-pyridinyl)-2-propen-1-yl]amino]methyl]benzamide]	did not significantly inhibit the number of lung metastatic foci	statistically significant (P<0.05) decrease in metastatic lung foci	significant ((P<0.01) reduction in the tumor volume distribution	18.8 days	12%	statistically significant (P<0.001) decrease in primary tumor volume distribution compared to vehicle controls	–	–	–	–
C=C1C[C@@H]2CC[C@@]34C[C@H]5O[C@H]6[C@@H](O3)[C@H]3OC(CC[C@@H]3O[C@H]6C5O4)CC(=O)C[C@@H]3[C@@H](OC)[C@@H](C[C@H](O)CN)O[C@H]3CC3O[C@@H](CCC1O2)C[C@@H](C)C3=C [Eribulin mesylate, 11,15:18,21:24,28 Triepoxy-7,9-ethano-12,15-methano-9H, 15H-furo[3,2-i]furo[2′,3′: 5,6]pyrano[4,3b][1,4]dioxacyclopentacosin-5(4H)-one,2-[(2S)-3-amino-2-hydroxypropyl]hexacosahydro-3 methoxy-26-methyl-20,27-bis(methylene)-, (2R,3R,3aS,7R,8aS,9S,10aR,11S,12R,13aR,13bS,15S,18S,21 S,24S,26R,28R,29aS)-, methanesulfonate (salt)]	did not significantly inhibit the number of lung metastatic foci	did not produce a statistically significant decrease in metastatic lung foci	–	–	–	did not produce a statistically significant decrease in primary tumor volume distribution	17.8 days	6%	17.6 days	5%
